Patent US20060127980A1, “Human excitatory amino acid transporter-2 gene promoter and uses thereof” (priority 2003, published 2006)

How the values were obtained:
Format in all cases: cell-based, human
hEAAT2 mRNA = experiment: Northern blot of hEAAT2 mRNA in PHFA treated with modulators; settings: 7-day treatment, EGF 30 ng/ml, TGF-α 30 ng/ml, dbcAMP 200 μM, bromo-cAMP 100 μM, TNF-α 200 U/ml
Description: FIG. 4A-D. Effect of modulators of hEAAT2 activity on hEAAT2 expression and hEAAT2 promoter activity in PHFA. A. A Northern analysis of hEAAT2 and GAPDH mRNA expression following treatment with EGF (30 ng/ml), TGF-α (30 ng/ml), dbcAMP (200 μM, bromo-cAMP (100 μM) or TNF-α (200 U/ml) for 7 days. B. Nuclear run-on assays determining the relative rates of hEAAT2 and GAPDH transcription as a function of 7-day treatment with the same concentrations of the indicated agents. C. A time course of mRNA expression of hEAAT2 and GAPDH following treatment with EGF, bromo-cAMP or TNF-α (same concentrations as in A.). D. Fold luciferase activity in PHFA transfected with flhEAAT2Prom-luc or various deletion mutants of hEAAT2 and non-transfected controls treated with the indicated compounds for four days.
(§1) Northern and Western Blotting Assays. Total cellular RNA was isolated by the guanidinium/phenol extraction method and Northern blotting was performed as described (Huang et al., 2001, Oncogene 20(48):7051-7063; Su et al., 2000, Oncogene 19(30):3411-3421; Su et al., 2001, Nucleic Acids Res 29(8):1661-1671). Western blotting assays were performed as described (Su et al., 1998, Proc Natl Acad Sci USA 95(24):14400-14405; Su et al., 2002, Oncogene 21(22):3592-602).
Positive and Negative Regulation of hEAAT2 Transcription, Promoter Activity and mRNA Levels in PHFA. Several enhancers of GLT-1 expression in rat astrocytes have been identified, including epidermal growth factor (EGF), transforming growth factor-α (TGF-α) and dibutyryl cyclic AMP (dbcAMP) (Swanson et al., 1997, J Neurosci 17(3):932-940; Zelenaia et al., 2000, Mol Pharmacol 57(4):667-678). Based on these considerations, experiments were performed to determine if these agents similarly modify human hEAAT2 expression in PHFA. Consistent with previous observations in rat astrocytes, 7-day treatment with EGF, TGF-α, and two analogs of cAMP, dbcAMP and bromo-cAMP, stimulated hEAAT2 mRNA expression in PHFA, whereas TNF-α decreased expression (FIG. 4B). […] In contrast, TNF-α decreased expression by 48 h (FIG. 4C).

hEAAT2 protein = experiment: Western blot of EAAT2 protein in PHFA
Description: FIG. 5A-E. Effect of pharmacological inhibitors on hEAAT2 promoter activity, and mRNA and protein expression in PHFA following various treatment protocols. A. hEAAT2 promoter activity in PHFA, either untreated (−) or treated with EGF (30 ng/ml), in the absence (−) or presence (+) of KT5720 (5 μM), AG1478 (1 μM), PDTC (100 μM), wortmannin (WRT) (100 nM) or PD98049 (PD) (50 μM). B. hEAAT2 promoter activity in PHFA, either untreated (−) or treated with bromo-cAMP (250 μM) in the absence (−) or presence (+) of KT5720 (5 μM), AG1478 (1 μM), PDTC (100 μM), wortmannin (WRT) (100 nM) or PD98049 (PD) (50 μM). C. hEAAT2 promoter activity in PHFA, either untreated (−) or treated with TNF-α (200 U/ml), in the absence (−) or presence (+) of KT5720 (5 μM), AG1478 (1 μM), PDTC (100 μM), wortmannin (WRT) (100 nM) or PD98049 (PD) (50 μM). D. The effect of the various treatment protocols on hEAAT2 and GAPDH mRNA levels. Upper panel presents relative hEAAT2 RNA expression versus GAPDH expression relative to control untreated or treated samples based on scanning of autoradiograms. Lower panel, actual Northern blots. E. The effect of the various treatment protocols on EAAT2 and ACTIN protein levels. Upper panel presents relative EAAT2 protein expression versus ACTIN expression relative to control untreated or treated samples based on scanning of autoradiograms. Individual experiments were performed 3 times using triplicate samples and S.D. from the mean is presented.
as §1

hEAAT2 promoter = hEAAT2 promoter luciferase assay of agents in H4 glioma cells (FIG. 12); settings: H4 malignant glioma cells; 10 μM
Description: (§2) FIG. 12. Effect of various agents on hEAAT2 promoter activity in H4 human malignant glioma cells. A: ceftriaxone; B: amoxicillin; C: chloramphenicol; D: thiamphenicol; E: vancomycin; F: glycine; G: glutamate; H: DMSO; I: dibutyryl cAMP. H4 is a rare clone of malignant glioma cells that support hEAAT2 promoter activity. H4 cells were seeded at 5×10^4 cells/35-mm plate. Twenty-four h later cells were untreated (CON) or received the indicated compound at a final concentration of 10 μM. Forty-eight h later the cells were transfected with a FL pGL3/EAAT2 luciferase reporter construct (5 μg) plus a pSVβGalactosidase construct (1 μg) using the calcium phosphate precipitation method (Su et al. 2003, Proc. Natl. Acad. Sci. USA 100:1955-1960). After an additional 48 h, cell lysates were prepared and luciferase activity was determined using the Luciferase Assay System Kit (Promega, E1501) and luminescence determined using a luminometer (Turner Designs, TD20/20) (Su et al. 2003, Proc. Natl. Acad. Sci. USA 100:1955-1960). Data presented are the average of 3 independent plates±S.D. Qualitatively similar results were obtained in 2 additional experiments.
as §2, with “H4, the third cell line examined,” for “FIG. 12. Effect of various agents on hEAAT2 promoter activity in H4 human malignant glioma cells. A: ceftriaxone; B: amoxicillin; C: chloramphenicol; D: thiamphenicol; E: vancomycin; F: glycine; G: glutamate; H: DMSO; I: dibutyryl cAMP. H4”, “activity. In the studies shown in FIG. 12,” for “activity.”

`CCCC(=O)Nc1ncnc2c1ncn2[C@@H]1O[C@@H]2COP(=O)(O)O[C@H]2[C@H]1OC(=O)CCC` [dbcAMP, dibutyryl cyclic AMP] was tested, and the “hEAAT2 mRNA expression” value (hEAAT2 mRNA) was “stimulated”, the hEAAT2 protein levels (hEAAT2 protein) was “upregulated” and the hEAAT2 promoter activity (hEAAT2 promoter) was “potent stimulators”.
